Results on 7 compounds are retold here after patent publication US9738661.

Molecules are shown by their SMILES. Where two headings read alike, the source gives them in different places.

`C=C1CCCCCOC(=O)N[C@@H](C2CCCCC2)C(=O)N2C[C@@H](C[C@H]2C(=O)OC)Oc2ccc3ccccc3c21` gave a ring closure, yield of all isomers (from C=CCCCCCOC(=O)N[C@H](C(=O)N1C[C@H](Oc2ccc3ccccc3c2Br)C[C@H]1C(=O)OC)C1CCCCC1, cc_pd bond, PdCl2(dppf)-DCM, EtOH, 50.3 mM, 78.0 °C, 48.0 h) of 52.7%.

For the compound `COC(=O)[C@@H]1C[C@@H]2CN1C(=O)[C@H](C1CCCC1)NC(=O)O[C@@H]1CCC[C@H]1CCCC=Cc1nc3ccccc3cc1O2` (mixture of isomers), under “from C=CCCC[C@@H]1CCC[C@H]1OC(=O)N[C@H](C(=O)N1C[C@H](Oc2cc3ccccc3nc2C=C)C[C@H]1C(=O)OC)C1CCCC1, rcm bond, Zhan catalyst, DCE, 10.0 mM, 90.0 °C, 1.5 h”, the ring closure, yield of all isomers was found to be 74%.

In the case of `COC(=O)[C@@H]1C[C@@H]2CN1C(=O)[C@H](C(C)(C)C)NC(=O)OCCCCCC=Cc1ccccc1C#CCO2.[C-]#[O+].[C-]#[O+].[C-]#[O+].[C-]#[O+].[C-]#[O+].[C-]#[O+].[Co].[Co]`, the ring closure, yield of all isomers (from C=CCCCCCOC(=O)N[C@H](C(=O)N1C[C@H](OCC#Cc2ccccc2C=C)C[C@H]1C(=O)OC)C(C)(C)C.[C-]#[O+].[C-]#[O+].[C-]#[O+].[C-]#[O+].[C-]#[O+].[C-]#[O+].[Co].[Co], rcm bond) came to 34.5%.

In the case of `CCCC[C@@H]1NC(=O)OCCCCC=CCc2ccccc2O[C@@H]2C[C@@H](C(=O)OC)N(C2)C1=O`, the ring closure, yield of all isomers (from C=CCCCCOC(=O)N[C@@H](CCCC)C(=O)N1C[C@H](Oc2ccccc2CC=C)C[C@H]1C(=O)OC, rcm bond, Zhan 1a catalyst, DCE, 4.9 mM, 83.0 °C, 2.0 h) is 100%.

With `COC(=O)[C@@H]1C[C@@H]2CN1C(=O)[C@H](C(C)(C)C)NC(=O)OCCCCC/C=C/c1cccnc1O2`, where the note is “from C=CCCCCCOC(=O)N[C@H](C(=O)N1C[C@H](Oc2ncccc2C=C)C[C@H]1C(=O)OC)C(C)(C)C, rcm bond, Zhan 1b catalyst, DCM, 5.03 mM, 16.0 h”, the ring closure, yield of all isomers was 92.9%.

Compound `COC(=O)[C@@H]1C[C@@H]2CN1C(=O)[C@H](C(C)(C)C)NC(=O)O[C@@H]1CCC[C@H]1CCCC=Cc1nc3ccc(OC)cc3cc1O2` had a ring closure, yield of all isomers (from C=CCCC[C@@H]1CCC[C@H]1OC(=O)N[C@H](C(=O)N1C[C@H](Oc2cc3cc(OC)ccc3nc2C=C)C[C@H]1C(=O)OC)C(C)(C)C, rcm bond, Zhan catalyst, DCE, 16.0 mM, 90.0 °C, 2.0 h) of 84%.

For the setting “from C=CCCCCOC(=O)N[C@H](C(=O)N1C[C@H](NC(=O)OC2CCCCC2CC=C)C[C@H]1C(=O)OC)C(C)(C)C, rcm bond, Zhan 1a catalyst, DCE, 5.0 mM, 83.0 °C, 1.5 h”, `COC(=O)[C@@H]1C[C@@H]2CN1C(=O)[C@H](C(C)(C)C)NC(=O)OCCCCC=CCC1CCCCC1OC(=O)N2` (stereo partly shown) registered a ring closure, yield of all isomers of 49.8%.
